Test results published in patent US20120009280A1, “METHOD OF REDUCING THE RATE OF DEGRADATION OF A BIOLOGICAL MATERIAL” (Bio-Energy Ingredients Limited, priority 2009, published 2012).

Columns and labels:
Format in all cases: cell-based
[1] = test system: yeast; experiment: Yeast count of spent brewer's / wet distiller's grains stored at ambient temperature
Description: Samples of Portion 1 (“AR”), Portion 3 (“SO”) and Portion 5 (“SH”) were then delivered to a microbiological testing facility about 15 kilometres from the treatment laboratory. Each was tested for initial total microbial, yeast and mould counts, respectively.
Separate untreated samples were similarly stored under insect-proof screens at ambient temperature for seven days (as shown in Tables 1 and 2). During the trial period the ambient temperature ranged from 11 to 33 degrees C.
(§1) The free moisture content on the initial spent brewer's grains was determined to be 78.1% m/m. After exposure to the environment for seven days, all of the samples were tested at a South African National Accreditation System (SANAS) approved microbiological testing facility. Each was tested for total micro-organism, yeast and mould counts to determine the affect of the various treatments. A similar procedure to that described in K. A. Rosentrater et al, Food Bioprocess Technol (2008) was used for the microbiological evaluation.
At the laboratory, the samples were thoroughly mixed and initially split into a first portion (Portion 1) and a second portion (Portion 2). Portion 1 was left untreated. A sample of Portion 1, was delivered immediately to a microbiological testing facility about 15 kilometres away from the treatment laboratory and was tested for initial total microbial, yeast and mould counts, respectively. No water removal prior to treatment was done in this experiment as was the case in Example 8 wherein a similar wet material was partially dewatered by pressing and the residue treated with 10% (w/w/) calcium oxide.
Samples from Portion 2 were subjected to treatment with varying amounts of a powdered, commercially-available calcium oxide containing approximately 94% calcium oxide (CaO) as shown in Table 32. The treatments varied from 2.5 to 10% (w/w) calcium oxide addition. The samples were stored in batches (according to the calcium oxide treatment) under insect-proof screens at ambient temperature for fifty six days. Separate untreated samples were similarly stored under insect-proof screens at ambient temperature for a total of 56 days. During the trial period the ambient temperature ranged from 10 to 30 degrees C. As this period was the southern hemisphere spring/early summer, the humidity as well as ambient temperatures varied widely.
as §1, with “79.4%” for “78.1%”
Samples from each treatment were drawn every seven days. No further calcium oxide treatment or agitation took place after the initial mix. In each case the entire sample was isolated and delivered to the microbiological testing facility.
The calcium oxide treatment trial described in Example 9 wherein wet distiller's grains were treated with 2.5%, 5% and 10.0% calcium oxide, respectively, versus untreated material was repeated using lower doses of calcium oxide. In this trial the same source of wet distiller's grains (again with now partial water removal prior to treatment) was treated. Also, the same protocol as described in Example 9 was applied, but at lower doses of calcium oxide i.e. 0.5%, 1.0%, 1.5%, 2.0% and 2.5%, respectively, versus untreated material.
In this trial the same source of wet distiller's grains (again with now partial water removal prior to treatment) was treated. Also, the same protocol as described in Example 9 was applied.

[2] = test system: mould; experiment: Mould count of spent brewer's / wet distiller's grains stored at ambient temperature
In short: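 Wet grain samples were mixed with a powdered treatment agent in a single initial mix, with no later treatment or agitation. Batches and untreated controls were kept under insect-proof screens at ambient temperature. Every seven days, a whole sample from each treatment went to a SANAS-approved microbiological laboratory. Mould counts were determined there following a procedure similar to Rosentrater et al. (2008).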

[3] = test system: yeast; experiment: Yeast count of spent brewer's / wet distiller's grains stored at ambient temperature; remark: listed apart in the source
[4] = wet distiller's grains, 0.5% CaO (w/w), day 2
[5] = wet distiller's grains, 1.0% CaO (w/w), day 1
[6] = wet distiller's grains, 1.5% CaO (w/w), day 10
[7] = wet distiller's grains, 2.0% CaO (w/w), day 2
[8] = wet distiller's grains, 2.5% CaO (w/w), day 14
[9] = wet distiller's grains, 5.0% CaO (w/w), day 21
[10] = wet distiller's grains, 10.0% CaO (w/w), day 14
[11] = wet distiller's grains, 0.5% CaO (w/w), day 1
[12] = wet distiller's grains, 0.5% CaO (w/w), day 3
[13] = wet distiller's grains, 0.5% CaO (w/w), day 6
[14] = wet distiller's grains, 0.5% CaO (w/w), day 8
[15] = wet distiller's grains, 1.0% CaO (w/w), day 2
[16] = wet distiller's grains, 1.0% CaO (w/w), day 3
[17] = wet distiller's grains, 1.0% CaO (w/w), day 6
[18] = wet distiller's grains, 1.0% CaO (w/w), day 8
[19] = wet distiller's grains, 1.0% CaO (w/w), day 10
[20] = wet distiller's grains, 1.5% CaO (w/w), day 1
[21] = wet distiller's grains, 1.5% CaO (w/w), day 2
[22] = wet distiller's grains, 1.5% CaO (w/w), day 3
[23] = wet distiller's grains, 1.5% CaO (w/w), day 6
[24] = wet distiller's grains, 1.5% CaO (w/w), day 8
[25] = wet distiller's grains, 2.0% CaO (w/w), day 1
[26] = wet distiller's grains, 2.0% CaO (w/w), day 3
[27] = wet distiller's grains, 2.0% CaO (w/w), day 6
[28] = wet distiller's grains, 2.0% CaO (w/w), day 8
[29] = wet distiller's grains, 2.0% CaO (w/w), day 10
[30] = wet distiller's grains, 2.5% CaO (w/w), day 1
[31] = wet distiller's grains, 2.5% CaO (w/w), day 2
[32] = wet distiller's grains, 2.5% CaO (w/w), day 3
[33] = wet distiller's grains, 2.5% CaO (w/w), day 6
[34] = wet distiller's grains, 2.5% CaO (w/w), day 7
[35] = wet distiller's grains, 2.5% CaO (w/w), day 8
[36] = wet distiller's grains, 2.5% CaO (w/w), day 10
[37] = wet distiller's grains, 2.5% CaO (w/w), day 21
[38] = wet distiller's grains, 2.5% CaO (w/w), day 56
[39] = wet distiller's grains, 5.0% CaO (w/w), day 7
[40] = wet distiller's grains, 5.0% CaO (w/w), day 14
[41] = wet distiller's grains, 5.0% CaO (w/w), day 42
[42] = wet distiller's grains, 5.0% CaO (w/w), day 49
[43] = wet distiller's grains, 5.0% CaO (w/w), day 56
[44] = wet distiller's grains, 10.0% CaO (w/w), day 7
[45] = wet distiller's grains, 10.0% CaO (w/w), day 21
[46] = wet distiller's grains, 10.0% CaO (w/w), day 42
[47] = wet distiller's grains, 10.0% CaO (w/w), day 49
[48] = wet distiller's grains, 10.0% CaO (w/w), day 56

## [O]=[Ca] [calcium oxide]
[1]; 5% CaO (w/w) powder, week 4
  Yeast Count: 10 cfu/gram
[1]; [4]
  Yeast Count: <10 cfu/gram
[1]; [5]
  Yeast Count: <10 cfu/gram
[1]; [6]
  Yeast Count: <10 cfu/gram
[1]; [7]
  Yeast Count: <10 cfu/gram
[1]; [8]
  Yeast Count: 52,000 cfu/gram
[1]; [9]
  Yeast Count: 10 cfu/gram
[1]; [10]
  Yeast Count: 120 cfu/gram
[2]; 5% CaO (w/w) powder, week 1
  Mould Count: 10 cfu/gram
[2]; 5% CaO (w/w) powder, week 2
  Mould Count: 10 cfu/gram
[2]; 5% CaO (w/w) powder, week 3
  Mould Count: 10 cfu/gram
[2]; 5% CaO (w/w) powder, week 4
  Mould Count: 10 cfu/gram
[2]; 5% CaO (w/w) powder, week 5
  Mould Count: 10 cfu/gram
[2]; [11]
  Mould Count: <10 cfu/gram
[2]; [4]
  Mould Count: 30 cfu/gram
[2]; [12]
  Mould Count: 100 cfu/gram
[2]; [13]
  Mould Count: 37000 cfu/gram
[2]; [14]
  Mould Count: <10 cfu/gram
[2]; [5]
  Mould Count: <10 cfu/gram
[2]; [15]
  Mould Count: <10 cfu/gram
[2]; [16]
  Mould Count: <10 cfu/gram
[2]; [17]
  Mould Count: <10 cfu/gram
[2]; [18]
  Mould Count: <10 cfu/gram
[2]; [19]
  Mould Count: 91000 cfu/gram
[2]; [20]
  Mould Count: <10 cfu/gram
[2]; [21]
  Mould Count: <10 cfu/gram
[2]; [22]
  Mould Count: <10 cfu/gram
[2]; [23]
  Mould Count: <10 cfu/gram
[2]; [24]
  Mould Count: <10 cfu/gram
[2]; [6]
  Mould Count: <110 cfu/gram
[2]; [25]
  Mould Count: <10 cfu/gram
[2]; [7]
  Mould Count: <10 cfu/gram
[2]; [26]
  Mould Count: <10 cfu/gram
[2]; [27]
  Mould Count: <10 cfu/gram
[2]; [28]
  Mould Count: <10 cfu/gram
[2]; [29]
  Mould Count: <10 cfu/gram
[2]; [30]
  Mould Count: <10 cfu/gram
[2]; [31]
  Mould Count: <10 cfu/gram
[2]; [32]
  Mould Count: <10 cfu/gram
[2]; [33]
  Mould Count: <10 cfu/gram
[2]; [34]
  Mould Count: 10 cfu/gram
[2]; [35]
  Mould Count: <10 cfu/gram
[2]; [36]
  Mould Count: <10 cfu/gram
[2]; [8]
  Mould Count: 14,000 cfu/gram
[2]; [37]
  Mould Count: 170,000 cfu/gram
[2]; wet distiller's grains, 2.5% CaO (w/w), day 42
  Mould Count: 850,000 cfu/gram
[2]; wet distiller's grains, 2.5% CaO (w/w), day 49
  Mould Count: 320,000 cfu/gram
[2]; [38]
  Mould Count: 1,240,000 cfu/gram
[2]; [39]
  Mould Count: 10 cfu/gram
[2]; [40]
  Mould Count: 10 cfu/gram
[2]; [9]
  Mould Count: 150 cfu/gram
[2]; [41]
  Mould Count: 20 cfu/gram
[2]; [42]
  Mould Count: 90 cfu/gram
[2]; [43]
  Mould Count: 90 cfu/gram
[2]; [44]
  Mould Count: 10 cfu/gram
[2]; [10]
  Mould Count: 10 cfu/gram
[2]; [45]
  Mould Count: 10 cfu/gram
[2]; [46]
  Mould Count: 70 cfu/gram
[2]; [47]
  Mould Count: 80 cfu/gram
[2]; [48]
  Mould Count: 16 cfu/gram
[3]; 5% CaO (w/w) powder, week 1
  Yeast Count: 10 cfu/gram
[3]; 5% CaO (w/w) powder, week 2
  Yeast Count: 10 cfu/gram
[3]; 5% CaO (w/w) powder, week 3
  Yeast Count: 113 cfu/gram
[3]; 5% CaO (w/w) powder, week 5
  Yeast Count: 10 cfu/gram
[3]; [11]
  Yeast Count: <10 cfu/gram
[3]; [12]
  Yeast Count: <10 cfu/gram
[3]; [13]
  Yeast Count: 40000 cfu/gram
[3]; [14]
  Yeast Count: <10 cfu/gram
[3]; [15]
  Yeast Count: <10 cfu/gram
[3]; [16]
  Yeast Count: <10 cfu/gram
[3]; [17]
  Yeast Count: <10 cfu/gram
[3]; [18]
  Yeast Count: <10 cfu/gram
[3]; [19]
  Yeast Count: 20 cfu/gram
[3]; [20]
  Yeast Count: <10 cfu/gram
[3]; [21]
  Yeast Count: <10 cfu/gram
[3]; [22]
  Yeast Count: <10 cfu/gram
[3]; [23]
  Yeast Count: <10 cfu/gram
[3]; [24]
  Yeast Count: <10 cfu/gram
[3]; [25]
  Yeast Count: <10 cfu/gram
[3]; [26]
  Yeast Count: <10 cfu/gram
[3]; [27]
  Yeast Count: <10 cfu/gram
[3]; [28]
  Yeast Count: <10 cfu/gram
[3]; [29]
  Yeast Count: <10 cfu/gram
[3]; [30]
  Yeast Count: <10 cfu/gram
[3]; [31]
  Yeast Count: <10 cfu/gram
[3]; [32]
  Yeast Count: <10 cfu/gram
[3]; [33]
  Yeast Count: <10 cfu/gram
[3]; [34]
  Yeast Count: 10 cfu/gram
[3]; [35]
  Yeast Count: <10 cfu/gram
[3]; [36]
  Yeast Count: <10 cfu/gram
[3]; [37]
  Yeast Count: 53,000 cfu/gram
[3]; [38]
  Yeast Count: 115,000 cfu/gram
[3]; [39]
  Yeast Count: 10 cfu/gram
[3]; [40]
  Yeast Count: 10 cfu/gram
[3]; [41]
  Yeast Count: 10 cfu/gram
[3]; [42]
  Yeast Count: 20 cfu/gram
[3]; [43]
  Yeast Count: 20 cfu/gram
[3]; [44]
  Yeast Count: 10 cfu/gram
[3]; [45]
  Yeast Count: 10 cfu/gram
[3]; [46]
  Yeast Count: 10 cfu/gram
[3]; [47]
  Yeast Count: 10 cfu/gram
[3]; [48]
  Yeast Count: 10 cfu/gram
